Active and inactive are the calls of the source.
How the values were obtained:
[1] = target: Disintegrin and metalloproteinase domain-containing protein 17 (Homo sapiens, UniProt P78536); test: inhibition of ADAM17 substrate cleavage – biochemical, quenched FRET substrate, counter-screen for ADAM10 exosite inhibitor project, dose response (AID 743253)
[2] = potency of ADAM10 substrate cleavage blockers – biochemical, QFRET, dose response (AID 743254);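 also: ADAM10 enzyme with the DM2 quenched FRET peptide as substrate; EDANS fluorescence gain as the protease cuts the substrate; inhibitor potency against ADAM10 proteolytic activity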
[3] = target: DNA dC->dU-editing enzyme APOBEC-3G (Homo sapiens, UniProt Q9HC16); test: Dose Response confirmation of small molecule APOBEC3G DNA Deaminase Inhibitors via a fluorescence-based single-stranded DNA deaminase assay. [Related pubchem assays (depositor defined):AID493012, AID493028]; type: functional
Sequence of DNA dC->dU-editing enzyme APOBEC-3G (Q9HC16 whole entry): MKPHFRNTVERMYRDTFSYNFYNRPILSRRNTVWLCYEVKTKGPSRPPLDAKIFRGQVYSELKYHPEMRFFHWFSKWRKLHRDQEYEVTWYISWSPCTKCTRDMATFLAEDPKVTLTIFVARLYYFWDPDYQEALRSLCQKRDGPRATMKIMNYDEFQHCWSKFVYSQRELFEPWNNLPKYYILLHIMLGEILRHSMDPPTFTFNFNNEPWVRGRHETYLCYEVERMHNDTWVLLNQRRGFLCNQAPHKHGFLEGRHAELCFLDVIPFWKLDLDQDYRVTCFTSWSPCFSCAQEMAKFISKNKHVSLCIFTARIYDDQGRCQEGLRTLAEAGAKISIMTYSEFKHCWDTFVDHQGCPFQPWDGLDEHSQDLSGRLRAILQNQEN

[4] = toxicity toward HepG2 liver cells – cell-based, plate reader, cherry-pick, antagonist series, cytotoxicity control, dose response (AID 743416); type: functional
HEK293 [5] = test: EBV LMP1 TES2 canonical NF-kB signalling blockers – cell-based, HEK293, luciferase, cherry-pick, dose response (AID 588343); type: functional; conditions: Homo sapiens
[6] = blockers of bursicon-stimulated LGR2 cAMP reporter – cell-based, HEK293, CRE-luciferase reporter, cherry pick, set 2, dose response (AID 743343); type: functional;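 also: transfected cells were stimulated with diluted bursicon conditioned medium after compound addition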
[7] = A549 cell cytotoxicity, dose response, cytotoxicity control, plate reader, cherry-pick, antagonist series (AID 743412); type: functional, cell-based
[8] = blockade of melanocortin 4 receptor signaling – cell-based, plate reader, cherry pick, counter-screen for LGR2 antagonist project, dose response (AID 743444); type: functional;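 also: transfected HEK 293 cells stimulated with alpha-MSH peptide; potency of inhibitors of the alpha-MSH evoked signal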
[9] = target: T1, Replicative DNA helicase DnaB (Mycobacterium tuberculosis, UniProt P9WMR3); test: DnaB intein splicing inhibitors, dose response, biochemical, cell-free fluorescence (AID 449749); type: functional
T1 sequence (P9WMR3 whole entry): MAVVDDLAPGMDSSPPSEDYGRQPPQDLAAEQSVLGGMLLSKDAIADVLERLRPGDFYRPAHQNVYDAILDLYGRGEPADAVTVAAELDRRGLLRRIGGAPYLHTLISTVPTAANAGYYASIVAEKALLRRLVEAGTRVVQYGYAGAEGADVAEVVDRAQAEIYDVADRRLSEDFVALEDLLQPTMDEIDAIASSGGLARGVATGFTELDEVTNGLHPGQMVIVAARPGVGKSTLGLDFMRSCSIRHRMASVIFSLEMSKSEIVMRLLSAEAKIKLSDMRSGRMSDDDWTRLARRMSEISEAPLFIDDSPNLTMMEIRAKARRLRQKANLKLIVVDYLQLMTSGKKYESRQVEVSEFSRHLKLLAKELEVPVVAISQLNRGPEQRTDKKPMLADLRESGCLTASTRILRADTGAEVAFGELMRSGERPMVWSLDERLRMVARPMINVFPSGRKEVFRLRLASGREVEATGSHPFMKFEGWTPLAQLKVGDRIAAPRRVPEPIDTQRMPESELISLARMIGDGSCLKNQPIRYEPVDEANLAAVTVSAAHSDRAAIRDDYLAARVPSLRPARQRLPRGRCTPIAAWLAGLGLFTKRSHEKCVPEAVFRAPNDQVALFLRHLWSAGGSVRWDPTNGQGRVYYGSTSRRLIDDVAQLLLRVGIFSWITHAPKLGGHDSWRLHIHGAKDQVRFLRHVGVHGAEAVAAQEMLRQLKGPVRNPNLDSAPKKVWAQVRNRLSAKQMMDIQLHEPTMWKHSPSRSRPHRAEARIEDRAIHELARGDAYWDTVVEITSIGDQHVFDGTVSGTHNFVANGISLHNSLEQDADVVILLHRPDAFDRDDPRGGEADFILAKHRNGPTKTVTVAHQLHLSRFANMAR

Protein RecA = target: T2, Protein RecA (Mycobacterium tuberculosis, UniProt P9WHJ3); test: Fluorescence Cell-Free Homogeneous Dose Retest to Identify Inhibitors of RecA-Intein Splicing Activity. [Related pubchem assays (depositor defined):AID2097, AID2223, AID489010, AID492950]; type: functional
T2 sequence (P9WHJ3 whole entry): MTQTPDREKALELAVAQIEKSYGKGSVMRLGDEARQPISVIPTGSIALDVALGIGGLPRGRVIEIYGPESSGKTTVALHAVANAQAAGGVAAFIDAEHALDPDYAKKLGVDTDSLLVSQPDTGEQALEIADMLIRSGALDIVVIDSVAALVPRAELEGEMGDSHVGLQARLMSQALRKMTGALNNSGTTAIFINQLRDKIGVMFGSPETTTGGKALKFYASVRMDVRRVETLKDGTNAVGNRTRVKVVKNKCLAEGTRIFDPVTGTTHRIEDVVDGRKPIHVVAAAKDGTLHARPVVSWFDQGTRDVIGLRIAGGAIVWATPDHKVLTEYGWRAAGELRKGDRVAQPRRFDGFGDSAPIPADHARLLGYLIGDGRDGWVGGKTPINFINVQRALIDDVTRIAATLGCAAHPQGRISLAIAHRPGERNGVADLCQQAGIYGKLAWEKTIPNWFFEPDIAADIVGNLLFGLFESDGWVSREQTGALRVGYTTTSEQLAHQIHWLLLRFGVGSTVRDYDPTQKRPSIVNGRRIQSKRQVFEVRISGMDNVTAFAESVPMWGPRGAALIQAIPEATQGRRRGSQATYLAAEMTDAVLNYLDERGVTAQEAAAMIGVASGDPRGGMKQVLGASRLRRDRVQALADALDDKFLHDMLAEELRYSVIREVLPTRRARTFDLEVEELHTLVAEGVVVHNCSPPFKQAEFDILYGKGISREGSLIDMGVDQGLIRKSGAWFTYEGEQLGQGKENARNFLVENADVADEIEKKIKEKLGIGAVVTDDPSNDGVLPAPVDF

fMet-Leu-Phe receptor = target: T3, fMet-Leu-Phe receptor (Homo sapiens, UniProt P21462); test: formyl peptide receptor binders – dose response (AID 519); type: functional
T3 sequence (P21462 whole entry): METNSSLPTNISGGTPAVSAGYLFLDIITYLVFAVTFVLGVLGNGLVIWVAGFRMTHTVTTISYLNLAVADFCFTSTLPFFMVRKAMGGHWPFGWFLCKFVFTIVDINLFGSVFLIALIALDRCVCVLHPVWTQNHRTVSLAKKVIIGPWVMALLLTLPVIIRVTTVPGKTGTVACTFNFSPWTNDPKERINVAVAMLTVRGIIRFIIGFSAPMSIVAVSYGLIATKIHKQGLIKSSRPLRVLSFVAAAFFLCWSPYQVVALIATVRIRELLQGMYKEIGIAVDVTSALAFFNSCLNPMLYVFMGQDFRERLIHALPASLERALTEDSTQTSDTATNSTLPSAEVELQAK

[10] = Dd2 malaria parasite growth inhibition potency – SYBR Green, dry powder samples, dose response (AID 1159566); type: functional, cell-based;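 also: potency for growth inhibition with lower SYBR green DNA signal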
[11] = OVCAR-3 cell viability loss – plate reader, dry powder samples, PAX8 inhibitor project, dose response (AID 743044); type: functional, cell-based
[12] = growth inhibition of PfATP4-mutant resistant parasites – NITD609-resistant line, SYBR Green, dry powder, dose response (AID 1159571); type: functional, cell-based;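 also: parasites synchronized at ring stage by sorbitol before testing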
[13] = P. falciparum Dd2 growth inhibitors, dose response, SYBR Green, cherry-picked samples (AID 1159567); type: functional, cell-based
HEK293 [14] = test: cells; conditions: Homo sapiens
[15] = OVCAR8 cell viability loss – plate reader, dry powder samples, PAX8 project, dose response (AID 743197); type: functional, cell-based; conditions: OVCAR-8
Paired box protein Pax-8 = Paired box protein Pax-8 (Homo sapiens, UniProt Q06710); test: PAX8 transcriptional activity inhibition in RMG-I – RMG-I cells, luciferase, cherry-pick, dose response (AID 687027); type: functional, cell-based;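 also: luciferase reporter driven by Pax8 target thyroperoxidase promoter measured by SteadyGlo luminescence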
Sequence of Paired box protein Pax-8 (Q06710 whole entry): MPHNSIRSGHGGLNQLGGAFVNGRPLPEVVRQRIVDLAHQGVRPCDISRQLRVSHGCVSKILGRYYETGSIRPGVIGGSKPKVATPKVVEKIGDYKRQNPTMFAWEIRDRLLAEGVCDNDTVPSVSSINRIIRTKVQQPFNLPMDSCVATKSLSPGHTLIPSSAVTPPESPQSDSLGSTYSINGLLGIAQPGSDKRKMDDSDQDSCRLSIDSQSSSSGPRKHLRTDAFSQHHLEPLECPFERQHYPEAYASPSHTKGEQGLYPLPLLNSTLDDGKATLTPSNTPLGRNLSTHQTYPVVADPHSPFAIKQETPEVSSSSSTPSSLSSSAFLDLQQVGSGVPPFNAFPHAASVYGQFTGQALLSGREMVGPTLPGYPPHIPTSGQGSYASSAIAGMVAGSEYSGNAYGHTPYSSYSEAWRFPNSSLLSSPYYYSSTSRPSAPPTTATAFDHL

[16] = toxicity to human HepG2 hepatoma cells – cell-based, plate reader, dry powder samples, cytotoxicity control, dose response (AID 1159569); type: functional;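 also: inhibitor potency with signal falling toward the positive control level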
[17] = IGROV1 cell killing – plate reader, dry powder samples, PAX8 inhibitor project, dose response (AID 743043); type: functional, cell-based; conditions: IGROV-1
[18] = growth inhibition of yeast DHODH-expressing 3D7 parasites – SYBR Green, dry powder samples, dose response (AID 1159570); type: functional, cell-based;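 also: parasite growth measured after 72 hours of compound exposure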
HEK293 [19] = test: cells; conditions: Homo sapiens; remark: listed apart in the source

Sequence of Disintegrin and metalloproteinase domain-containing protein 17 (P78536 whole entry, the tested form may be a part): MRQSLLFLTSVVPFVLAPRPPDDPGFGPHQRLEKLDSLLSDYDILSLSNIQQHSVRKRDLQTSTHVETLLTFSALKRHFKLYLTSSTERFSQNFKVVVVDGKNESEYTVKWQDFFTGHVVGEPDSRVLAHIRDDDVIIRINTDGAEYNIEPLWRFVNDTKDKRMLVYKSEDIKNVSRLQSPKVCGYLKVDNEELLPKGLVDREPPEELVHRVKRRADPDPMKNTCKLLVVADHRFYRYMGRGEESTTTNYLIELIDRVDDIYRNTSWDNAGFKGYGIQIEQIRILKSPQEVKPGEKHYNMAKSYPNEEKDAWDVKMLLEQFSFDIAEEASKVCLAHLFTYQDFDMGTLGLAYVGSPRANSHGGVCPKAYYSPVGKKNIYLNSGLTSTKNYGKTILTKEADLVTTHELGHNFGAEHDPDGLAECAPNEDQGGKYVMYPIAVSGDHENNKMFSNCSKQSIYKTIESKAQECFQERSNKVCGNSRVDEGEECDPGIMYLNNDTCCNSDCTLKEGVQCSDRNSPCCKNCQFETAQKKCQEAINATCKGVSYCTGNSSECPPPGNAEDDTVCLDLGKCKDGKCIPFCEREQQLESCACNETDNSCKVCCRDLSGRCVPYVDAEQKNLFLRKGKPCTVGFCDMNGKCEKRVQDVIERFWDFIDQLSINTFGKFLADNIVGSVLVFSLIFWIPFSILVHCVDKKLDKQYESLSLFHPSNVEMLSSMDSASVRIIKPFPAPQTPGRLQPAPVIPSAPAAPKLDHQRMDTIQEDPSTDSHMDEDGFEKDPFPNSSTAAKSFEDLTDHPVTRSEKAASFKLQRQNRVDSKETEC

In the case of `CCN(CC)c1ccc(NC(=O)COc2ccccc2C)cc1S(=O)(=O)Nc1ccccc1OC`, the IC50 [1] is reported as > 69.5 µM (inactive), the IC50 [2] is reported as > 69.5 µM (inactive) and the IC50 [3] is reported as 70.1 µM (active).
In the case of `Cc1ccc(C(=O)NCCc2cccs2)cc1`, the AC50 [4] is reported as > 52 µM (inactive), the AC50 (HEK293 [5]) is reported as 2.28 µM (active) and the AC50 [6] is reported as 3.13 µM (active). For the same compound, the AC50 [7] was > 52 µM (inactive) and the AC50 [8] was 3.74 µM (active).
With `CSCCC1C(C#N)=C(N)Oc2[nH]nc(-c3cccs3)c21` (stereo unspecified) the AC50 [9] was 3.12 µM (active), the EC50 (Protein RecA) was 1.43 µM (active) and the Ki (fMet-Leu-Phe receptor) was > 66.7 µM (inactive).
In the case of `C[C@H](CO)N1C[C@H](C)[C@H](CN(C)S(=O)(=O)c2ccc(Cl)cc2)OCc2ccccc2-c2c(n(C)c3ccccc23)C1=O`, the AC50 [10] is reported as 0.0741 µM (active), the AC50 [11] is reported as 26.2 µM (active) and the AC50 [12] is reported as 0.129 µM (active). For the same compound, the AC50 [13] was < 0.35 µM (active), the EC50 (HEK293 [14]) was > 59.7 µM (inactive) and the IC50 [1] was > 69.5 µM (inactive). For the same compound, the AC50 [15] was 41.6 µM (active), the AC50 (Paired box protein Pax-8) was 4.86 µM (active) and the IC50 [2] was 9.56 µM (active). The AC50 [16] was 35.5 µM (active), the AC50 [17] was 62.3 µM (active) and the AC50 [18] was 0.193 µM (active). For the same compound, the EC50 (HEK293 [19]) was > 59.7 µM (inactive).
In the case of `N#Cc1c(NC(=O)CCn2cnc3ccccc3c2=O)oc(-c2ccccc2)c1-c1ccccc1`, the IC50 [1] is reported as > 69.5 µM (inactive) and the IC50 [2] is reported as > 69.5 µM (inactive).
